Source: publication PMC4660513 (Pharmacognosy Research, 2015)
Where “and” joins values, the source holds several entries; their conditions need not be identical. Equal entries are not always repeated. Structures can show the parent of a compound that is named as a salt. Where two headings read alike, the source gives them in different places.

Tests used:
[1] = tested on: UGT (4-MU glucuronidation); assay: 4-MU glucuronidation inhibition assay in rat liver microsomes; format: in vitro ADME; details: rat, rat liver microsomes, pH 7.4, probe 4-methylumbelliferone (4-MU), 100 μM
recombinant human UGT1A1 = biological target: T1, recombinant human UGT1A1 (Homo sapiens, UniProt P22309); assay: 4-MU glucuronidation inhibition assay with recombinant human UGT1A1 isoform; format: in vitro ADME
T1 sequence (P22309 26-533): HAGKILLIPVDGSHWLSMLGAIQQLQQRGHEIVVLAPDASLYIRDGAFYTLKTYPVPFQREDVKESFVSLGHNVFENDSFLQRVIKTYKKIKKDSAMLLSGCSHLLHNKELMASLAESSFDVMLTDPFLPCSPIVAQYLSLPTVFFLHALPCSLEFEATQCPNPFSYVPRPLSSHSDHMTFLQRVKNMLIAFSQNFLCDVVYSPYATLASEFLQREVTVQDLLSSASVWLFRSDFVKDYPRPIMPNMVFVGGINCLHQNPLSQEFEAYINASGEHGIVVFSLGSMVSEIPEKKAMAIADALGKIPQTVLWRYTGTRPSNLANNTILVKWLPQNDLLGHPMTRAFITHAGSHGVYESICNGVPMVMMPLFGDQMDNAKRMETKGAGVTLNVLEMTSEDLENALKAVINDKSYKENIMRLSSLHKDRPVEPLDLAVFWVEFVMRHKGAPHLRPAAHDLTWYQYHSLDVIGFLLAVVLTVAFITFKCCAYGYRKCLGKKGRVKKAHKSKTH

[2] = cited from earlier work
human UGT2B15 = details: read-out: estimated IC50, human UGT2B15; previous study; cited from earlier work
human UGT1A1 = details: previous report; cited from earlier work
UGT (s) = details: cited from earlier work
recombinant human UGT2B7 = biological target: T2, recombinant human UGT2B7 (Homo sapiens, UniProt P16662); assay: 4-MU glucuronidation inhibition assay with recombinant human UGT2B7 isoform; format: in vitro ADME
T2 sequence (P16662 24-529): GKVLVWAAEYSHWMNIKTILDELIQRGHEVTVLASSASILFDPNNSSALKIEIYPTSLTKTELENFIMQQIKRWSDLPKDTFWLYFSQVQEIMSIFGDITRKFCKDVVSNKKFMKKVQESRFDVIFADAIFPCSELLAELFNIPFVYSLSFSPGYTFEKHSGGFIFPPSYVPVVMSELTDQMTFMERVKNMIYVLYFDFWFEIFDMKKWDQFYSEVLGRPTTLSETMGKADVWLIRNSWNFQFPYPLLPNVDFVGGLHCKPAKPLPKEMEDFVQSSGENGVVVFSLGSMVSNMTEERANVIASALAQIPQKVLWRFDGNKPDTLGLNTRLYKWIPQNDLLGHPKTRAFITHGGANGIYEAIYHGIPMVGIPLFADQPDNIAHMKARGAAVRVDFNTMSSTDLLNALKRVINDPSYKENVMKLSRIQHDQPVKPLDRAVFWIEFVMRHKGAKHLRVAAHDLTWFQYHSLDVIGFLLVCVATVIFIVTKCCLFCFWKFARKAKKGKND

human UGT2B7 [3] = details: read-out: estimated IC50, human UGT2B7; previous study; cited from earlier work
human UGT2B7 [4] = details: read-out: Km for 4-MU glucuronidation by human UGT2B7 isoform; cited from earlier work
UGT1A1 = details: except at highly extraordinary concentrations; cited from earlier work
rat liver microsomes = assay: 4-MU glucuronidation inhibition assay in rat liver microsomes; format: in vitro ADME
human liver microsomes = assay: 4-MU glucuronidation inhibition assay in human liver microsomes; format: in vitro ADME; details: comparison of IC50 values
human UGT2B7 [5] = details: read-out: Km for buprenorphine glucuronidation by human UGT2B7 isoform; cited from earlier work

In the case of `O=C(O)Cc1ccccc1Nc1c(Cl)cccc1Cl` [Diclofenac, diclofenac], the IC50 at 30 min [1] is reported as 21.1 ± 1.32 µM and the IC50 (recombinant human UGT1A1) is reported as 2.34 ± 1.28 µM.

In the case of `CNC1(c2ccccc2Cl)CCCCC1=O` (centres unmarked) [Ketamine, Ketamine hydrochloride], the “ketamine concentration after low-dose administration” value ([2]; 0.125–0.250 mg/kg intravenous) is given as > 0.42 μM and > 100 μg/l, the “mean plasma concentration during steady-state anesthesia” value ([2]; induction 2 mg/kg, maintenance approx. 40 μg/kg/min) is given as 9.3 µM and the IC50 (human UGT2B15) is given as 95 µM. The IC50 at 30 min [1] was 6.21 ± 1.51 µM, the “inhibitory effect on 4-MU glucuronidation in human UGT1A1 isoform” value (human UGT1A1) was “weak inhibitory effect” and the “manner of inhibition of morphine-3-glucuronide formation” value (UGT (s)) was “non-competitive”. The IC50 (recombinant human UGT2B7) was 27.3 ± 1.18 µM, the IC50 (human UGT2B7 [3]) was 55 µM and the IC50 (recombinant human UGT1A1) was > 1000 µM.

For `Cc1cc(=O)oc2cc(O)ccc12` [4-MU, 4-methylumbelliferone], the Km (human UGT2B7 [4]) is listed as 335 µM.

For buprenorphine hydrochloride, the “inhibitory effect on bilirubin glucuronidation catalyzed by UGT1A1” value (UGT1A1) is listed as “no significant inhibitory effect”, the “potency relative to diclofenac” value (rat liver microsomes; rat liver microsomes, comparison of IC50 values) is listed as “about three orders of magnitude less potent than diclofenac” and the IC50 (rat liver microsomes; read-out: IC50 on 4-MUG formation, rat liver microsomes) is listed as 73.2 ± 1.63 µM. The “potency relative to diclofenac (more potent)” value (human liver microsomes) was “about 13 orders of magnitude” and the Km (human UGT2B7 [5]) was 20.9 µM.
